pEC50: −log10 of the molar value.
Target: Ras-related protein Rab-7a (Canis lupus familiaris, UniProt P18067)
Test: analogs blocking nucleotide binding to wildtype Rab7 – biochemical, oxadiazole analogs, multiplex bead flow cytometry, SAR follow-up (AID 2031)
Settings: inactive by the depositor's call

Chain of Ras-related protein Rab-7a (P18067 whole entry): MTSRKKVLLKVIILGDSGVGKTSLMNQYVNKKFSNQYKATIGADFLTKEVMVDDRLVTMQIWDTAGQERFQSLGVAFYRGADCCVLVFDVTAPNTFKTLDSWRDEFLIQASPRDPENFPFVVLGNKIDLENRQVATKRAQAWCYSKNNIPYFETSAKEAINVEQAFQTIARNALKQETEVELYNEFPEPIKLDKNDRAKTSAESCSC

| Structure (SMILES) | pEC50 |
| --- | --- |
| COc1ccc(-c2noc(CCC(=O)N3CCN(c4cccc(Cl)c4)CC3)n2)cc1 | 4.51 |
| Cc1ccc(C)c(N2CCN(C(=O)CCc3nc(-c4cccc(C(F)(F)F)c4)no3)CC2)c1 [KUC103380N] | 6.15 |
| COc1ccc(-c2noc(CCCCC(=O)N3CCN(c4cc(C)ccc4C)CC3)n2)cc1 [1-[4-(2,5-dimethylphenyl)-1-piperazinyl]-5-[3-(4-methoxyphenyl)-1,2,4-oxadiazol-5-yl]-1-pentanone] | 4.52 |
| Cc1ccc(C)c(N2CCN(C(=O)CCc3nc(-c4cccc(Br)c4)no3)CC2)c1 [KUC103367N] | 5.45 |
| COc1ccc(-c2noc(CCC(=O)N3CCN(c4ccccc4Cl)CC3)n2)cc1 [1-[4-(2-chlorophenyl)piperazin-1-yl]-3-[3-(4-methoxyphenyl)-1,2,4-oxadiazol-5-yl]propan-1-one] | 5.64 |
| COc1ccc(-c2ccc(CCC(=O)N3CCN(c4cc(C)ccc4C)CC3)o2)cc1 [KUC103447N] | 4.52 |
| COc1ccc(-c2cccc(CCC(=O)N3CCN(c4cc(C)ccc4C)CC3)c2)cc1 [UNM-0000306127] | 4.52 |
| COc1ccc(-c2noc(CC(=O)N3CCN(c4cc(C)ccc4C)CC3)n2)cc1 [1-[4-(2,5-dimethylphenyl)piperazin-1-yl]-2-[3-(4-methoxyphenyl)-1,2,4-oxadiazol-5-yl]ethanone] | 4.52 |
| Cc1ccc(C)c(N2CCN(C(=O)CCc3nc(-c4ccccc4Cl)no3)CC2)c1 [3-[3-(2-chlorophenyl)-1,2,4-oxadiazol-5-yl]-1-[4-(2,5-dimethylphenyl)-1-piperazinyl]-1-propanone] | 4.52 |
| Cc1ccc(C)c(N2CCN(C(=O)CCc3nc(-c4ccccc4Br)no3)CC2)c1 [3-[3-(2-bromophenyl)-1,2,4-oxadiazol-5-yl]-1-[4-(2,5-dimethylphenyl)-1-piperazinyl]-1-propanone] | 5.38 |
| Cc1ccc(C)c(N2CCN(C(=O)CCc3nc(-c4ccc(C(F)(F)F)cc4)no3)CC2)c1 [1-[4-(2,5-dimethylphenyl)-1-piperazinyl]-3-[3-[4-(trifluoromethyl)phenyl]-1,2,4-oxadiazol-5-yl]-1-propanone] | 4.52 |
| COc1ccc(-c2coc(CCC(=O)N3CCN(c4cc(C)ccc4C)CC3)n2)cc1 [1-[4-(2,5-dimethylphenyl)piperazin-1-yl]-3-[4-(4-methoxyphenyl)-1,3-oxazol-2-yl]propan-1-one] | 4.52 |
| Cc1ccc(C)c(N2CCN(C(=O)CCc3nc(-c4ccc(Br)cc4)no3)CC2)c1 [UNM-0000306072] | 5.80 |
| Cc1ccc(C)c(N2CCN(C(=O)CCc3nc(-c4ccccc4)no3)CC2)c1 [UNM-0000306070] | 5.93 |
| COc1ccc(-c2noc(CCC(=O)N3CCN(c4ccccc4Br)CC3)n2)cc1 [KUC103370N] | 5.65 |
| COc1ccc(-c2cc(CCC(=O)N3CCN(c4cc(C)ccc4C)CC3)on2)cc1 [1-[4-(2,5-dimethylphenyl)piperazin-1-yl]-3-[3-(4-methoxyphenyl)-1,2-oxazol-5-yl]propan-1-one] | 6.52 |
| COc1ccc(-c2noc(CCC(=O)N3CCN(c4cccc(OC)c4)CC3)n2)cc1 [KUC103349N] | 4.52 |
| COc1ccc(-c2noc(CCC(=O)N3CCN(c4ccc(C)cc4)CC3)n2)cc1 [3-[3-(4-methoxyphenyl)-1,2,4-oxadiazol-5-yl]-1-[4-(4-methylphenyl)piperazin-1-yl]propan-1-one] | 4.52 |
| Cc1ccc(C)c(N2CCN(C(=O)CCc3nc(-c4ccccc4F)no3)CC2)c1 [KUC103401N] | 4.52 |
| COc1ccc(-c2ccc(CCC(=O)N3CCN(c4cc(C)ccc4C)CC3)s2)cc1 | 4.52 |
| COc1ccc(-c2noc(CCC(=O)N3CCN(c4ccccc4C(F)(F)F)CC3)n2)cc1 [UNM-0000306082] | 5.71 |
| Cc1ccc(C)c(N2CCN(C(=O)CCc3nc(-c4cccc(Cl)c4)no3)CC2)c1 [UNM-0000306086] | 4.52 |
| COc1ccc(-c2noc(CCC(=O)N3CCN(c4ccccc4)CC3)n2)cc1 [3-[3-(4-methoxyphenyl)-1,2,4-oxadiazol-5-yl]-1-(4-phenylpiperazin-1-yl)propan-1-one] | 4.52 |
| COc1ccc(-c2noc(CCC(=O)N3CCC(c4cc(C)ccc4C)CC3)n2)cc1 [KUC103432N] | 5.88 |
| Cc1cccc(-c2noc(CCC(=O)N3CCN(c4cc(C)ccc4C)CC3)n2)c1 [1-[4-(2,5-dimethylphenyl)piperazin-1-yl]-3-[3-(3-methylphenyl)-1,2,4-oxadiazol-5-yl]propan-1-one] | 5.99 |
| COc1ccccc1-c1noc(CCC(=O)N2CCN(c3cc(C)ccc3C)CC2)n1 [UNM-0000306071] | 4.52 |

| Structure (SMILES) | pEC50 |
| --- | --- |
| COc1ccc(-c2noc(CCC(=O)N3CCN(c4ccccc4OC)CC3)n2)cc1 [3-[3-(4-methoxyphenyl)-1,2,4-oxadiazol-5-yl]-1-[4-(2-methoxyphenyl)-1-piperazinyl]-1-propanone] | 4.52 |
| COc1ccc(-c2noc(CCC(=O)N3CCN(c4ccc(Cl)cc4)CC3)n2)cc1 [UNM-0000306121] | 4.52 |
| COc1ccc(-c2noc(CCC(=O)N3CCN(c4ccccc4F)CC3)n2)cc1 [1-[4-(2-fluorophenyl)piperazin-1-yl]-3-[3-(4-methoxyphenyl)-1,2,4-oxadiazol-5-yl]propan-1-one] | 6.20 |
| COc1ccc(-c2noc(CCC(=O)N3CCN(c4cccc(F)c4)CC3)n2)cc1 [1-[4-(3-fluorophenyl)piperazin-1-yl]-3-[3-(4-methoxyphenyl)-1,2,4-oxadiazol-5-yl]propan-1-one] | 4.52 |
| Cc1ccc(C)c(N2CCN(C(=O)CCc3nc(-c4cccc(F)c4)no3)CC2)c1 [KUC103366N] | 5.11 |
| COc1ccc(-c2noc(CCC(=O)N3CCN(c4cccc(C(F)(F)F)c4)CC3)n2)cc1 [1-{3-[3-(4-methoxyphenyl)-1,2,4-oxadiazol-5-yl]propanoyl}-4-[3-(trifluoromethyl)phenyl]piperazine] | 4.52 |
| COc1cccc(-c2noc(CCC(=O)N3CCN(c4cc(C)ccc4C)CC3)n2)c1 | 5.46 |
| Cc1ccc(C)c(N2CCN(C(=O)CCc3nc(-c4ccccc4C(F)(F)F)no3)CC2)c1 | 4.52 |
| COc1ccc(-c2noc(CCC(=O)N3CCN(c4ccc(C(F)(F)F)cc4)CC3)n2)cc1 [3-[3-(4-methoxyphenyl)-1,2,4-oxadiazol-5-yl]-1-[4-[4-(trifluoromethyl)phenyl]piperazin-1-yl]propan-1-one] | 4.52 |
| Cc1ccc(C)c(N2CCN(C(=O)CCc3nc(-c4ccc(F)cc4)no3)CC2)c1 [KUC103364N] | 6.18 |
| COc1ccc(-c2ccc(CCC(=O)N3CCN(c4cc(C)ccc4C)CC3)[nH]2)cc1 [1-[4-(2,5-dimethylphenyl)piperazin-1-yl]-3-[5-(4-methoxyphenyl)-1H-pyrrol-2-yl]propan-1-one] | 4.52 |
| COc1ccc(-c2noc(CCC(=O)N3CCN(c4cccc(C)c4)CC3)n2)cc1 [UNM-0000306125] | 4.52 |
| COc1ccc(-c2noc(CCC(=O)N3CCN(c4ccc(Br)cc4)CC3)n2)cc1 [1-[4-(4-bromophenyl)piperazin-1-yl]-3-[3-(4-methoxyphenyl)-1,2,4-oxadiazol-5-yl]propan-1-one] | 4.52 |
| Cc1ccc(C)c(N2CCN(C(=O)CCc3nc(-c4ccccc4C)no3)CC2)c1 | 5.26 |
| COc1ccc(-c2noc(CCCC(=O)N3CCN(c4cc(C)ccc4C)CC3)n2)cc1 [KUC103353N] | 4.84 |
| COc1ccc(-c2cc(CCC(=O)N3CCN(c4cc(C)ccc4C)CC3)[nH]n2)cc1 [UNM-0000306150] | 4.52 |
| COc1ccc(-c2noc(CCC(=O)N3CCN(c4cccc(C)c4C)CC3)n2)cc1 [1-[4-(2,3-dimethylphenyl)-1-piperazinyl]-3-[3-(4-methoxyphenyl)-1,2,4-oxadiazol-5-yl]-1-propanone] | 5.81 |
| COc1ccc(-c2noc(CCC(=O)N3CCN(c4cc(C)ccc4C)CC3)n2)cc1 [1-[4-(2,5-dimethylphenyl)-1-piperazinyl]-3-[3-(4-methoxyphenyl)-1,2,4-oxadiazol-5-yl]-1-propanone] | 5.62 |
| COc1ccc(-c2noc(CCC(=O)N3CCN(c4ccc(F)cc4)CC3)n2)cc1 [KUC103398N] | 4.52 |
| Cc1ccc(-c2noc(CCC(=O)N3CCN(c4cc(C)ccc4C)CC3)n2)cc1 [1-[4-(2,5-dimethylphenyl)-1-piperazinyl]-3-[3-(4-methylphenyl)-1,2,4-oxadiazol-5-yl]-1-propanone] | 5.36 |
| Cc1ccc(C)c(N2CCN(C(=O)CCc3nc(-c4ccc(N(C)C)cc4)no3)CC2)c1 [KUC103409N] | 4.52 |
| COc1ccc(-c2noc(CCC(=O)N3CCN(c4ccc(OC)cc4)CC3)n2)cc1 [3-[3-(4-methoxyphenyl)-1,2,4-oxadiazol-5-yl]-1-[4-(4-methoxyphenyl)piperazin-1-yl]propan-1-one] | 4.52 |
| COc1ccc(-c2noc(CCC(=O)N3CCN(c4ccccc4C)CC3)n2)cc1 | 4.52 |
| Cc1ccc(C)c(N2CCN(C(=O)CCc3nc(-c4ccc(Cl)cc4)no3)CC2)c1 [UNM-0000306083] | 5.54 |
| COc1ccc(-c2noc(CCC(=O)N3CCN(c4cccc(Br)c4)CC3)n2)cc1 [1-[4-(3-bromophenyl)-1-piperazinyl]-3-[3-(4-methoxyphenyl)-1,2,4-oxadiazol-5-yl]-1-propanone] | 4.52 |
